Assay results as given in PubChem BioAssay AID330 (DTP/NCI, 2004).
Values joined by “and” are separate entries in the source; they are usually repeats but may differ in a detail not shown here. Equal values may be shown once. Toxic doses and inconclusive results are not listed.

Test system: P388 leukemia ip, CD2F1 mice, survival T/C
Assay: NCI In Vivo Anticancer Drug Screen. Data for tumor model P388 Leukemia (intraperitoneal) in CD2F1 (CDF1) mice
Conditions: endpoint: median survival time, higher = longer survival
Outline: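 Mice carrying the transplanted tumor received test compound or vehicle. Survival was recorded in each group, and the value is the treated-group measurement divided by that of the vehicle-treated control group.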

[1] = dose: 12.5 mg/kg/injection, schedule: Q01DX009 (ip), vehicle: saline
[2] = dose: 25.0 mg/kg/injection, schedule: Q01DX009 (ip), vehicle: saline
[3] = dose: 50.0 mg/kg/injection, schedule: Q01DX009 (ip), vehicle: saline
[4] = dose: 50.0 mg/kg/injection, schedule: Q01DX005 (ip), vehicle: Klucel (hydroxypropylcellulose) (HPC)
[5] = dose: 100.0 mg/kg/injection, schedule: Q01DX005 (ip), vehicle: Klucel (hydroxypropylcellulose) (HPC)
[6] = dose: 200.0 mg/kg/injection, schedule: Q01DX005 (ip), vehicle: Klucel (hydroxypropylcellulose) (HPC)
[7] = dose: 60.0 mg/kg/injection, schedule: Q01DX005 (ip), vehicle: saline with Tween-80
[8] = dose: 120.0 mg/kg/injection, schedule: Q01DX005 (ip), vehicle: saline with Tween-80
[9] = dose: 240.0 mg/kg/injection, schedule: Q01DX005 (ip), vehicle: saline with Tween-80
[10] = dose: 25.0 mg/kg/injection, schedule: Q01DX005 (ip), vehicle: saline with Tween-80
[11] = dose: 50.0 mg/kg/injection, schedule: Q01DX005 (ip), vehicle: saline with Tween-80
[12] = dose: 100.0 mg/kg/injection, schedule: Q01DX005 (ip), vehicle: saline with Tween-80
[13] = dose: 50.0 mg/kg/injection, schedule: Q01DX009 (ip), vehicle: saline with Tween-80
[14] = dose: 100.0 mg/kg/injection, schedule: Q01DX009 (ip), vehicle: saline with Tween-80
[15] = dose: 200.0 mg/kg/injection, schedule: Q01DX009 (ip), vehicle: saline with Tween-80
[16] = dose: 100.0 mg/kg/injection, schedule: Q01DX009 (ip), vehicle: saline

CC(NCCc1ccccc1)C1CCOC1=O (centres undefined)
T/C (dose: 6.25 mg/kg/injection, schedule: Q01DX009 (ip), vehicle: saline): 98 % of control | T/C [1]: 97 % of control and 102 % of control | T/C [2]: 103 % of control and 109 % of control | T/C [3]: 100 % of control and 97 % of control

COP(=O)(O)OC
T/C (dose: 200.0 mg/kg/injection, schedule: Q01DX001 (ip), vehicle: Klucel (hydroxypropylcellulose) (HPC)): 88 % of control | T/C (dose: 400.0 mg/kg/injection, schedule: Q01DX001 (ip), vehicle: Klucel (hydroxypropylcellulose) (HPC)): 100 % of control

Cc1nn2c(-c3ccccc3)cnnc2c1-c1ccccc1
T/C [4]: 101 % of control | T/C [5]: 98 % of control | T/C [6]: 96 % of control

Cc1ccc2c(c1)C1(SC(C)C(=O)N1c1ccc(Cl)cc1)C(=O)N2CN1CCOCC1 (centres undefined)
T/C [7]: 113 % of control | T/C [8]: 100 % of control | T/C [9]: 121 % of control

Cc1cc(-c2ccc(Oc3ccc(Br)cc3)cc2)n[nH]c1=O
T/C [4]: 99 % of control | T/C [5]: 104 % of control | T/C [6]: 96 % of control

CN(C)CCNc1ccc(CO)c2sc3ccccc3c(=O)c12
T/C [10]: 93 % of control and 94 % of control | T/C [11]: 101 % of control and 114 % of control

O=Cc1cc(CCl)ccc1O
T/C (dose: 12.5 mg/kg/injection, schedule: Q01DX005 (ip), vehicle: saline with Tween-80): 103 % of control | T/C [10]: 110 % of control | T/C [11]: 113 % of control | T/C [12]: 98 % of control

CSCCC(NC(=O)C(C)NC(=O)OCc1ccccc1)C(=O)O (centres undefined)
T/C [4]: 99 % of control | T/C [5]: 101 % of control | T/C [6]: 95 % of control

N=C(N)SCc1ccc(C(=O)Oc2ccc([N+](=O)[O-])cc2)cc1
T/C (dose: 100.0 mg/kg/injection, schedule: Q04DX003 (ip), vehicle: saline with Tween-80): 100 % of control | T/C (dose: 200.0 mg/kg/injection, schedule: Q04DX003 (ip), vehicle: saline with Tween-80): 104 % of control

Cc1cn(C)c2c1-c1c(cnn1-c1ccccc1)CC2
T/C (dose: 100.0 mg/kg/injection, schedule: Q04DX003 (ip), vehicle: Klucel (hydroxypropylcellulose) (HPC)): 100 % of control | T/C (dose: 200.0 mg/kg/injection, schedule: Q04DX003 (ip), vehicle: Klucel (hydroxypropylcellulose) (HPC)): 102 % of control | T/C (dose: 400.0 mg/kg/injection, schedule: Q04DX003 (ip), vehicle: Klucel (hydroxypropylcellulose) (HPC)): 93 % of control

CC(C)=NN/C=N/S(=O)(=O)c1ccc(C)cc1
T/C [4]: 104 % of control | T/C [5]: 104 % of control | T/C [6]: 104 % of control

O=c1c2cccc3cccc(c32)c2nc3ccccc3n12
T/C (dose: 4.12 mg/kg/injection, schedule: Q01DX009 (ip), vehicle: saline with Tween-80): 108 % of control | T/C (dose: 6.25 mg/kg/injection, schedule: Q01DX009 (ip), vehicle: saline with Tween-80): 100 % of control | T/C (dose: 25.0 mg/kg/injection, schedule: Q01DX009 (ip), vehicle: saline with Tween-80): 95 % of control

COC(=O)C1(C2CCCCCCCCCCC2=O)NC(=S)NC(=O)C1C#N (centres undefined)
T/C (dose: 60.0 mg/kg/injection, schedule: Q01DX005 (ip), vehicle: saline): 96 % of control | T/C (dose: 120.0 mg/kg/injection, schedule: Q01DX005 (ip), vehicle: saline): 92 % of control | T/C (dose: 240.0 mg/kg/injection, schedule: Q01DX005 (ip), vehicle: saline): 92 % of control

CC1N2CCc3ccccc3C2C2c3ccccc3CCN21 (centres undefined)
T/C (dose: 12.5 mg/kg/injection, schedule: Q01DX001 (ip), vehicle: suspension in saline): 111 % of control | T/C (dose: 25.0 mg/kg/injection, schedule: Q01DX001 (ip), vehicle: suspension in saline): 111 % of control | T/C (dose: 50.0 mg/kg/injection, schedule: Q01DX001 (ip), vehicle: suspension in saline): 102 % of control and 118 % of control

O=C(O)CCCC(=O)c1ccc2ccccc2c1
T/C [13]: 98 % of control | T/C [14]: 98 % of control | T/C [15]: 99 % of control

N#CCC1(C#N)CCC(OCc2ccccc2)CC1 (centres undefined)
T/C [3]: 100 % of control and 99 % of control | T/C [16]: 100 % of control | T/C (dose: 200.0 mg/kg/injection, schedule: Q01DX009 (ip), vehicle: saline): 102 % of control and 101 % of control

COc1ccc2c3c([nH]c2c1)C1CC2C(CC(O)C(OC)C2C(=O)O)CN1CC3 (centres undefined)
T/C (dose: 60.0 mg/kg/injection, schedule: Q01DX005 (ip), vehicle: Klucel (hydroxypropylcellulose) (HPC)): 100 % of control | T/C (dose: 120.0 mg/kg/injection, schedule: Q01DX005 (ip), vehicle: Klucel (hydroxypropylcellulose) (HPC)): 100 % of control | T/C (dose: 240.0 mg/kg/injection, schedule: Q01DX005 (ip), vehicle: Klucel (hydroxypropylcellulose) (HPC)): 106 % of control

O=C1c2ccccc2-c2c(NC(=O)C(Cl)Cl)cccc21
T/C [4]: 87 % of control | T/C [5]: 86 % of control | T/C [6]: 86 % of control

Cn1c(NCCN2CCCCC2)c(C(=O)/C=C/c2ccccc2)c(=O)n(C)c1=O
T/C [4]: 104 % of control | T/C [5]: 107 % of control | T/C [6]: 103 % of control

N#Cc1c(-c2ccc(Cl)cc2)c(-c2ccc(Cl)cc2)n[nH]c1=O
T/C [4]: 100 % of control | T/C [5]: 99 % of control | T/C [6]: 104 % of control

CCCCN(CCCC)CCC(O)c1cc(-c2ccc(C(F)(F)F)cc2)nc(-c2ccc(C(F)(F)F)cc2)c1 (centres undefined)
T/C [13]: 111 % of control | T/C [14]: 106 % of control | T/C [15]: 101 % of control

COc1ccc2c(c1)OCCN(C)OC2c1cccc(Cl)c1 (centres undefined)
T/C [11]: 107 % of control | T/C [12]: 99 % of control | T/C (dose: 200.0 mg/kg/injection, schedule: Q01DX005 (ip), vehicle: saline with Tween-80): 92 % of control

O=C(N/N=C/c1ccco1)c1cccnc1
T/C [7]: 92 % of control | T/C [8]: 92 % of control | T/C [9]: 101 % of control

CCCCCCCCCCCC[N+](C)([O-])CCCCCC[N+](C)([O-])CCCCCCCCCCCC (centres undefined)
T/C (dose: 12.5 mg/kg/injection, schedule: Q01DX009 (ip), vehicle: Klucel (hydroxypropylcellulose) (HPC)): 96 % of control | T/C (dose: 25.0 mg/kg/injection, schedule: Q01DX009 (ip), vehicle: Klucel (hydroxypropylcellulose) (HPC)): 95 % of control | T/C (dose: 50.0 mg/kg/injection, schedule: Q01DX009 (ip), vehicle: Klucel (hydroxypropylcellulose) (HPC)): 100 % of control and 95 % of control

CS(=O)(=O)NC(=O)NC(=S)c1ccco1
T/C (dose: 100.0 mg/kg/injection, schedule: Q01DX001 (ip), vehicle: saline with Tween-80): 105 % of control | T/C (dose: 200.0 mg/kg/injection, schedule: Q01DX001 (ip), vehicle: saline with Tween-80): 102 % of control | T/C (dose: 400.0 mg/kg/injection, schedule: Q01DX001 (ip), vehicle: saline with Tween-80): 97 % of control

CNc1nc(NC)nc(NC)n1
T/C [1]: 95 % of control | T/C [2]: 104 % of control | T/C [3]: 95 % of control | T/C [16]: 93 % of control

CN(C)c1ccc(C(O)C(N)=O)cc1 (centres undefined)
T/C (dose: 6.25 mg/kg/injection, schedule: Q04DX003 (ip), vehicle: saline): 100 % of control | T/C (dose: 12.5 mg/kg/injection, schedule: Q04DX003 (ip), vehicle: saline): 104 % of control | T/C (dose: 25.0 mg/kg/injection, schedule: Q04DX003 (ip), vehicle: saline): 100 % of control

CN(C)c1ccc(N/C=C/C(=O)c2ccccc2O)cc1
T/C (dose: 100.0 mg/kg/injection, schedule: Q01DX001 (ip), vehicle: other): 103 % of control | T/C (dose: 200.0 mg/kg/injection, schedule: Q01DX001 (ip), vehicle: other): 100 % of control | T/C (dose: 400.0 mg/kg/injection, schedule: Q01DX001 (ip), vehicle: other): 96 % of control

O=NN(Cc1cccnc1)C(=O)NC1CCCCC1
T/C (dose: 25.0 mg/kg/injection, schedule: Q01DX001 (ip), vehicle: distilled water + Tween-80): 109 % of control | T/C (dose: 50.0 mg/kg/injection, schedule: Q01DX001 (ip), vehicle: distilled water + Tween-80): 98 % of control | T/C (dose: 100.0 mg/kg/injection, schedule: Q01DX001 (ip), vehicle: distilled water + Tween-80): 100 % of control

COC12[C@@H]3N[C@@H]3CN1C1=C(C(=O)C(NCCSSCCNC3=C(C)C(=O)C4=C(C3=O)C(COC(N)=O)[C@]3(OC)C5N[C@@H]5CN43)=C(C)C1=O)[C@@H]2COC(N)=O (some centres undefined)
T/C (dose: 3.12 mg/kg/injection, schedule: Q01DX001 (ip), vehicle: DMSO): 157 % of control | T/C (dose: 6.25 mg/kg/injection, schedule: Q01DX001 (ip), vehicle: DMSO): 161 % of control | T/C (dose: 12.5 mg/kg/injection, schedule: Q01DX001 (ip), vehicle: DMSO): 177 % of control | T/C (dose: 25.0 mg/kg/injection, schedule: Q01DX001 (ip), vehicle: DMSO): 233 % of control

Nc1ncnc2ccc(Cl)cc12
T/C [13]: 105 % of control | T/C [14]: 100 % of control | T/C [15]: 107 % of control
